Reference: the NIST ThermoML archive (doi:10.1016/j.jct.2017.05.001)

Experiment: wn = mass fraction of the nth substance listed
Conditions: Liquid; for viscosity: Falling or rolling sphere viscometry; for mass density: Vibrating tube method

CN(C)CCO [2-(N,N-dimethylamino)ethanol] + O
Conditions | mass density, w1 = 0.1005 [kg/m3] | mass density, w1 = 0.202 [kg/m3] | mass density, w1 = 0.3005 [kg/m3] | mass density, w1 = 0.3995 [kg/m3] | viscosity, w1 = 0.1005 [mPa·s] | viscosity, w1 = 0.202 [mPa·s] | viscosity, w1 = 0.3005 [mPa·s] | viscosity, w1 = 0.3995 [mPa·s]
373.15 K, 30000 kPa | 964.4 | 956.3 | 947.9 | 938.5 | 0.3711 | 0.4702 | 0.6099 | 0.7742
373.15 K, 40000 kPa | 968.7 | 960.9 | 952.4 | 943.3 | 0.3746 | 0.4771 | 0.6239 | 0.7998
373.15 K, 50000 kPa | 972.8 | 964.9 | 956.6 | 947.6 | – | – | – | –
373.15 K, 60000 kPa | 976.8 | 968.9 | 960.9 | 952.1 | 0.3833 | 0.4923 | 0.6493 | 0.8409
373.15 K, 70000 kPa | 980.9 | 973 | 965 | 956.2 | – | – | – | –
373.15 K, 80000 kPa | 984.7 | 976.9 | 969.1 | 960.4 | 0.3916 | 0.5073 | 0.6735 | 0.8827
373.15 K, 90000 kPa | 988.6 | 980.6 | 972.8 | 964.3 | – | – | – | –
373.15 K, 100000 kPa | 992.1 | 984.3 | 976.4 | 968.1 | 0.3984 | 0.5213 | 0.6978 | 0.9306
373.15 K, 110000 kPa | 995.9 | 988 | 980.3 | 971.9 | – | – | – | –
373.15 K, 120000 kPa | 999.5 | 991.6 | 983.8 | 975.6 | – | – | – | –
373.15 K, 130000 kPa | 1003 | 995 | 987.3 | 979.1 | – | – | – | –
373.15 K, 140000 kPa | 1006.3 | 998.4 | 990.7 | 982.6 | – | – | – | –
393.15 K, 100 kPa | 934.5 | 925.2 | 915 | 903.9 | – | – | – | –
393.15 K, 500 kPa | 934.9 | 925.5 | 915.5 | 904.3 | – | – | – | –
393.15 K, 1000 kPa | 935.1 | 925.7 | 915.7 | 904.6 | – | – | – | –
393.15 K, 2000 kPa | 935.6 | 926.3 | 916.3 | 905.2 | – | – | – | –
393.15 K, 5000 kPa | 937.1 | 927.9 | 917.9 | 907 | 0.2917 | 0.3533 | 0.4325 | 0.5209
393.15 K, 10000 kPa | 939.7 | 930.5 | 920.8 | 910 | 0.2952 | 0.3557 | 0.4367 | 0.5259
393.15 K, 15000 kPa | 942.1 | 933 | 923.4 | 912.8 | 0.2973 | 0.3585 | 0.4425 | 0.5368
393.15 K, 20000 kPa | 944.6 | 935.6 | 926.1 | 915.7 | 0.2998 | 0.3624 | 0.4483 | 0.5458
393.15 K, 25000 kPa | – | – | – | – | 0.3019 | 0.366 | 0.4536 | 0.5538
393.15 K, 30000 kPa | 949.3 | 940.5 | 931.2 | 921 | 0.3036 | 0.3687 | 0.4597 | 0.5613
393.15 K, 40000 kPa | 953.9 | 945.2 | 936.2 | 926.3 | 0.3078 | 0.3736 | 0.4697 | 0.578
393.15 K, 50000 kPa | 958.2 | 949.6 | 940.8 | 931 | – | – | – | –
393.15 K, 60000 kPa | 962.6 | 954.1 | 945.3 | 935.9 | 0.3147 | 0.3862 | 0.489 | 0.6086
393.15 K, 70000 kPa | 966.9 | 958.5 | 949.8 | 940.5 | – | – | – | –
393.15 K, 80000 kPa | 971 | 962.4 | 953.9 | 944.8 | 0.322 | 0.3985 | 0.5076 | 0.6407
393.15 K, 90000 kPa | 975 | 966.6 | 958.1 | 949.2 | – | – | – | –
393.15 K, 100000 kPa | 978.8 | 970.5 | 962.2 | 953.2 | 0.3308 | 0.4097 | 0.5265 | 0.6716
393.15 K, 110000 kPa | 982.7 | 974.3 | 966 | 957.3 | – | – | – | –
393.15 K, 120000 kPa | 986.5 | 978.2 | 969.9 | 961.2 | – | – | – | –
393.15 K, 130000 kPa | 990 | 981.7 | 973.5 | 964.9 | – | – | – | –
393.15 K, 140000 kPa | 993.7 | 985.3 | 977.2 | 968.9 | – | – | – | –
